Values of other authors as cited in patent US20070065542A1 (Board Of Regents, The University Of Texas System, priority 2005, published 2007).
Like-named read-outs stand apart in the source and are kept apart here.

Experiments:
[1] = soluble complexes of calcium, from literature
[2] = dissociation constant
[3] = soluble iron complexes and reference complexes, known values
[4] = very high concentration

For `O=C([O-])CC(O)C(=O)[O-].[Ca+2]` (stereo not drawn) [CaMal], which Stability constant [1] is on record?
The Stability constant was 2.19.

Which pK1 [2] does the source give for `O=C(O)O` [Carbonate anion] here?
Its pK1 is 6.1.

What about the pK2 [2] of the same molecule?
Its pK2 is 10.3.

Which Stability constant [3] does the source give for `O=C1O[C@H]([C@@H](O)CO)C(O)=C1O.[Fe+2]` [Ferrous monohydrogen ascorbate] here?
The Stability constant was 1.30.

Which pK1 [2] does the source give for `CC(O)C(=O)O` (stereo not drawn) [Lactic Acid] here?
Its pK1 is 3.87.

With `[Cl][Fe]([Cl])[Cl]` [ferric chloride] as the molecule, how does the “pH at which precipitation of iron occurred” value [4] read?
The value was 3-4.
